Source: paper PMC7460887, “Capsaicin-Cyclodextrin Complex Enhances Mepivacaine Targeting and Improves Local Anesthesia in Inflamed Tissues” (International Journal of Molecular Sciences, 2020)
Converted amounts (≈) assume the structure as drawn. Counter-ions that a name gives are not always drawn. Like-named read-outs stand apart in the source and are kept apart here.

Assays:
[1] = cited from earlier work; for Ks with HP-β-CD (from phase solubility study): LA base form; for solubility increment of CAP: at least 10 times greater HP-β-CD concentrations
[2] = DOSY NMR diffusion, complexed fraction and association constant; type: physicochemical
Protocol: DOSY is an experiment that separates the signals of a mixture of components according to the size and shape of the molecules. DOSY experiments were conducted with the pulse sequence ledbpgp2s, with a time diffusion of 0.06 s. […] The average acquisition time of the experiment was 40 min. The processing program (Dosy Toolbox) was run with data transformed using fn = 32 K. The diffusion coefficient and standard deviation of each species was given by the arithmetic mean of all coefficients of the same species. DOSY allows determination of the association constant (Ka), between guest molecules and CDs. Ka values are inferred from the complexed fraction (Fcomplexed) of the guest molecule, and both values were calculated accordingly to Equations (4) and (5), where Ddrug is the diffusion coefficient of the free drug, Dcomplex is the diffusion coefficient of the complex, Dcyclodextrin is the diffusion coefficient of free CD, and R is the molar concentration of non-complexed CD [25]:(4) Fcomplexed=[Ddrug−Dcomplex]/[Ddrug−Dciclodextrin] (5) Ka=[Ddrug−Dcomplex]/[Ddrug−Dciclodextrin] × R

[3] = cited from earlier work
[4] = set-up: method as in PMID 19440843; details: pure HP-β-CD 15% m/w; cited from earlier work
[5] = system: carrageenan-inflamed mice paw; test: Analgesia in inflamed tissue, carrageenan-induced hyperalgesia, mechanical allodynia in mice hind paw; type: in vivo, Male Swiss mice; details: 2% solution, subplantar injection, 4 h after carrageenan
Protocol: The antinociceptive effect of the association between mepivacaine and complexed CAP (HP-β-CD-CAP) was evaluated in vivo. A sample of freeze-dried HP-β-CD-CAP was resuspended in 4 mL of mepivacaine hydrochloride solution (MVC) to final concentrations of 1.6 mM (0.05%) CAP and 2% MVC. MVC solution was previously sterilized by filtration 0.22 μm. (Millipore, Burlington, Massachusetts, USA). Male Swiss mice (30–35 g) were obtained from Centro de Bioterismo, University of Campinas, UNICAMP (CEMIB-UNICAMP, Campinas, São Paulo, Brazil) and housed in standard cages under a 12/12 h of light/dark cycle. All experiments were approved by the institutional animal care and use committee of Unicamp, meaning it follows the Brazilian national guideline, which is in line with the National Institutes of Health guide for the care and use of Laboratory animals (protocol # 4402-1).
The mechanical allodynia was analyzed in mice hind paw by a Dynamic Plantar Aesthesiometer (model 37450, Ugo Basile, Italy). The animals were placed in an elevated cage for 2 h before the test, for setting and training. […] The anesthetic formulations were then applied into the same subplantar region of the right paw of the mice, and the pain threshold was evaluated every 15 min. […] After the mechanical stimulus, the time elapsed until paw withdrawal as well as the applied pressure value were automatically recorded.

[6] = In vitro release, Franz-type vertical diffusion cell; type: physicochemical; details: 37 °C, PBS pH 7.4, n = 3
Protocol: A “Franz-type” vertical diffusion cell system was used to evaluate the in vitro release of CAP, comparing the free (dissolved in 20% ethanolic solution) and complexed drug with HP-β-CD [26]. The diffusion system consists of two compartments: the donor one—containing 1 mL of the sample—and the acceptor compartment, containing 12 mL of buffer (10 mM phosphate buffered saline, pH 7.4) kept at 37 °C, under mild stirring to ensure sink condition. A cellulose membrane (Spectrapore, Los Angeles, 1000 Da molecular exclusion pore) separated the two compartments. Aliquots (200 μL) were withdrawn from the acceptor compartment at fixed intervals (15, 30, […], 60, and 90 min, and every hour for 6 h) and the volume was replaced with fresh medium. CAP was quantified by HPLC, in a Waters Breeze 2 System (Waters, Milford, Massachussets, USA) at 280 nm and 30 °C, using a Luna® C18 (2) reverse phase (25 × 4.6 mm, 5 μm) (Phenomenex, Torrance, California, USA), 30-µL injection volume, phosphoric acid (1:1000 v/v) and acetonitrile (7:3 v:v), at pH 2.4, and 1.0 mL/min flow rate.

[7] = Phase solubility study of CAP with HP-β-CD; type: physicochemical
Protocol: The effects of HP-β-CD on the solubility of CAP was investigated according to the phase solubility method described by Higuchi and Connors. In this experiment increasing concentrations of CD (0–10 mM) were added to a saturated CAP solution. The solutions were left under magnetic stirring for 48 h (350 rpm and 25 °C). Aliquots of each vial were centrifuged for 10 min (4100× g) and the supernatant was filtered through 0.45 μm (Millipore, Burlington, Massachusetts, USA) and diluted to determine CAP concentration by UV absorption at 280 nm. The phase solubility diagram was obtained by plotting the solubility of CAP, versus the concentrations of HP-β-CD […]. The apparent stability constant (Ks) were calculated by Equation (1), where S0 is the aqueous molar solubility of the drug, taken from the Y intercept of the plot:(1) Ks=slope/S0(1−slope)
The complexation efficiency (CE) determines the adequate ratio of CDs to ensure maximum solubility of the complexed drug. For the CAP-HP-β-CD complex, CE was calculated from the phase solubility plots, according to Equation (2). The CE values allow drug/CD ratio in the formulation, according to Equation (3):(2) CE=slope/(1−slope) (3) Drug:CD=1/(CE+1)/CE

[8] = complexation with HP-β-CD, DOSY-NMR

Compound: Cc1cccc(C)c1NC(=O)C1CCCCN1C (centres unmarked) [mepivacaine]
- Ks with HP-β-CD (from phase solubility study) [1]: 38 M⁻¹

Compound: Clc1ccc(COC(Cn2ccnc2)c2ccc(Cl)cc2Cl)c(Cl)c1 (centres unmarked) [miconazole]
- molecules of HP-β-CD demanded for optimal complexation [1]: 12 molecules

Compound: hydroxypropyl-β-cyclodextrin [HP-β-CD]
- diffusion coefficient (D) [2]: 2.00 × 10^−10 m^2s^−1
- diffusion coefficient (D) [3]: 2.21 × 10^−10 m^2s^−1
- collapse temperature (Tc) [4]: −9.5 °C
- HP-β-CD concentration above which aggregates start [1]: higher than 12 mM

Compound: CCCCN1CCCC[C@H]1C(=O)Nc1c(C)cccc1C [S-bupivacaine]
- association constant (Ka) [3, 8]: 91 M⁻¹
- complexed fraction (Fcomplexed) [3, 8]: 57%

Compound: CCCCN1CCCCC1C(=O)Nc1c(C)cccc1C (centres unmarked) [bupivacaine]
- Ks with HP-β-CD (from phase solubility study) [1]: 95 M⁻¹

Compound: Cc1cccc(C)c1NC(=O)C1CCCCN1C (centres unmarked) [MVC, mepivacaine hydrochloride]
- induction of anesthesia in inflamed paw [5]: did not induce anesthesia in mice at any time tested

Compound: CC(C)(C)c1ccc(C(O)CCCN2CCC(C(O)(c3ccccc3)c3ccccc3)CC2)cc1 (centres unmarked) [terfenadine]
- molecules of HP-β-CD demanded for optimal complexation [1]: 4 molecules

Compound: Clc1ccccc1C(c1ccccc1)(c1ccccc1)n1ccnc1 [clotrimazole]
- molecules of HP-β-CD demanded for optimal complexation [1]: 21 molecules

Compound: COc1cc(CNC(=O)CCCC/C=C/C(C)C)ccc1O [CAP, Capsaicin]
- diffusion coefficient (D) [2]: 4.94 × 10^−10 m^2s^−1
- diffusion coefficient (D) [3]: 4.81 × 10^−10 m^2s^−1
- solubility increment of CAP ([1]; at 27 °C): 160 times
- solubility increment of CAP ([1]; at 37 °C): 147 times
- time of CAP release [6]: 5 h
- improvement of apparent solubility of CAP [7]: up to 20 times
- moles of HP-β-CD required per mole of drug to solubilize (D:CD, Equation (3)) [7]: 4.2 mol
- solubility at 48 h ([7]; 25 °C, aqueous with cosolvent or surfactant or cyclodextrin, thermodynamic from solid): 2200 µM (≈ 672 µg/mL)
